In brackets after ≈: the same amount, converted by molar mass. Several values for one entry are separate records, joined by “and”; a condition that tells them apart may be missing. Equal values may be shown once. Read-outs that look alike come from different tables or passages of the source.
How the values were obtained:
[1] = test system: human T-lymphocytic MT-4 cells; test: in vitro; conditions: MT-4 cells, 5 days, MTT, mean ± S.E.M, n = 3; for MNTC, maximum nontoxic concentration: concentration with cell viability above 80% (CC20)
Source text: (§1) In this study, human T-lymphocyte MT-4 cells (ARP-120) were obtained from the National Institute of Health (NIH) HIV Reagent Program, Division of AIDS, National Institute of Allergy and Infectious Diseases (NIAID), NIH; donated by Dr. Douglas Richman. Human T-lymphocytic MT-4 cells express CD4, CXCR4 and CCR5 and are used for cytotoxicity inhibition assays for antiviral drugs. The vials containing frozen MT-4 cells were retrieved from the liquid nitrogen tank and rapidly thawed. In a tissue culture laminar flow hood, the exterior of the vials was decontaminated by spraying 70% ethanol. […] The CCM was sterilized with a 0.22 µm membrane filter before use. The cultures were incubated at 37 °C in a humidified incubator with atmospheric conditions of 5% CO2. […] The cell count and viability were measured by the trypan blue dye exclusion technique.
(§2) The cytotoxicity test was conducted to evaluate the cytotoxicity of the plant extracts by measuring cell death caused by the plant extracts. The assay was conducted using an MTT colorimetric assay as described by. The MTT assay is based on the reduction of the yellow-colored tetrazolium salt MTT 3-(4,5-dimethylthiazol-2-yl)-2,5-diphenyltetrazolium bromide) by NAD(P)H-dependent cellular oxidoreductase enzymes to an insoluble dark-blue colored formazan that can be measured spectrophotometrically. Formazan production indicates the number of viable cells; therefore, an increase or decrease in cellular viability results in a change in the amount of formazan formed, which indicates the degree of cellular cytotoxicity (CC50) caused by the plant extract.
(§3) MTT (3-(4,5-dimethylthiazol-2-yl)-2,5-diphenyl tetrazolium bromide) was dissolved in PBS to obtain a final concentration of 5 mg/mL and filtered to sterilize and remove insoluble residue. The assay was carried out in 96-well, flat-bottomed microtiter plates. To each well, 200 µL of MT-4 cells (1 × 10^5 cells) in growth media was added. The plates were preincubated for 24 h at 37 °C to allow stabilization. Then, 50 μL of the test compounds (at a concentration of 4 mg/mL) were added to the first column of the well. With a multichannel pipette, 50 μL was transferred (in triplicate) from the wells labeled 1 to wells labeled 2, and such transfers were continued (serial dilution), moving from left to right, changing tips prior to mixing contents of the next column of wells. Finally, 50 μL was discarded from the wells in column 12. […] Each dilution was tested in triplicate. The negative control (NC) wells contained 50 µL of MT-4 cells in 0.5% DMSO [39].
(§4) A 96-well microtiter plate containing the test compounds, positive and negative controls was incubated at 37 °C in a humidified atmosphere of 5% CO2 for 5 days. After incubation, 20 μL of MTT reagent (5 mg/mL MTT in phosphate-buffered saline) was added to each test well and control well. The plate was further incubated at 37 °C in a CO2 incubator for 4 h. After 4 h of incubation, 100 μL of DMSO was added to dissolve the dark-blue formazan crystals from surviving cells. After the formazan crystals were dissolved completely, the resulting optical density (OD) readings were measured relative to the controls on an ELISA plate reader at 570 nm at a reference wavelength of 620 nm. […] The concentration that determined cell viability above 80% (CC20) was chosen as the maximum non-toxic concentration (MNTC).

[2] = in vitro; conditions: human, MT-4 T-lymphocytic cells
Source text: as §1, §2, §3, §4

[3] = test system: HIV-1IIIB; test: Anti-HIV activity: inhibition of HIV-induced cytopathic effect in infected MT-4 cells (MTT); assay type: cell-based, Human immunodeficiency virus type 1; conditions: for IC50: Human immunodeficiency virus 1, MT4, 120 h; for SI, selective index: ratio CC50 (MT-4) / IC50 (HIV-1IIIB)
Experimental: Human immunodeficiency virus type 1 (HIV-1IIIB) strain was obtained from the NIH HIV Reagent Program, Division of AIDS, NIAID, NIH. Dr. Robert Gallo donated human immunodeficiency virus-1 IIIB (ARP-398). HIV-1IIIB is highly capable of replicating in human T cell lines and appears to be well adapted for in vitro culture in T cells. The frozen HIV-1IIIB vials were thawed by immersion in room temperature water, and the vial was swirled until viruses were thawed. Then, 400 µL of the virus was transferred to 75 cm^2 tissue culture flasks (T75) containing 10 mL of 1 × 10^5 pelleted MT4 cells/mL, vortexed and incubated at 37 °C for 1 hr for virus adsorption. After 1 hr, 20 mL of RPMI-1640 was added gently and mixed with vortexing. The cells were then pelleted by centrifuging at 1500 rpm for 5 min. The pelleted cells were then washed and resuspended in 30 mL RPMI 1640 with L-glutamine and 20% fetal bovine serum in a T75 flask, incubated at 37 °C and monitored for the development of cytopathic effects (CPEs).
The virus infectivity test was performed to determine the infectious titer of the virus, which can cause cytopathic effects (CPE) in tissue culture over a reasonable period of 3 to 10 days while cells in culture remain viable. In addition, this procedure was performed to quantify the amount of virus required to produce a cytopathic effect in 50% of cell culture replicates (TCID50). CPE induced by the virus was observed under a microscope after 3–4 days. The TCID50 was then calculated as described by. For the anti-HIV activity testing, 640 µL of HIV-1IIIB virus at 1.26 × 10^8 TCID50/mL was used to infect 1 × 10^8 cell/mL. All procedures were carried out following biosafety guidelines defined in the BMBL, NIH-CDC HHS Publication No. (CDC) 21-1112 [44].
MT-4 cells suspended at 1 × 10^8 cells/mL were infected with 640 µL of HIV-1IIIB virus at 1.26 × 10^8 TCID50/mL as described in above. After infection, 200 µL HIV-infected MT-4 cells (1 × 10^5 cells/well) in growth media were added to each well. The plates were preincubated for 24 h at 37 °C to allow stabilization. Then, 50 μL of the test compounds (at a concentration of 4 mg/mL) were added to the first column of the well. With a multichannel pipette, 50 μL was transferred (in triplicate) from the wells labeled 1 to wells labeled 2. Such transfers were continued (serial dilution), moving from left to right, changing tips prior to mixing contents of the next column of wells. Finally, 50 μL was discarded from the wells in column 12. Different concentrations ([…]) of test compounds were prepared through serial dilution. Each dilution was tested in triplicate. The microtiter plates were incubated at 37 °C in a 5% CO2 incubator for 5 days. […] After 5 days of incubation, cell viability was determined by the MTT assay as described by.
A dose-response curve was plotted to calculate the concentrations that reduced viral replication by 50% (IC50). […] The efficacy of the test compounds, was determined by calculating the viral inhibition rate (EmaxAV) using Equation (1), as previously described by.

[4] = HIV-1IIIB-infected MT-4 cells, 5 days, MTT, mean ± S.E.M, n = 3
[5] = read-out: IC50, 50% antiviral effect concentration, HIV-1IIIB-infected MT-4 cells, 5 days, MTT, mean ± S.E.M, n = 3

Compound | MNTC, maximum nontoxic concentration [1] [µg/mL] | EmaxC, maximum cytotoxic effect % [1] [%] | CC50 at 5 days [2] [µg/mL] | EmaxAV, maximum antiviral effect % (viral inhibition rate) [3, 4] | IC50 [3, 5] [µg/mL] | SI, selective index [3] | IC50, 50% antiviral effect concentration [3, 4] [µg/mL] | CC50, 50% cytotoxic concentration [1] [µg/mL] | IC50 ([3]; HIV-1IIIB-infected MT-4 cells, 5 days, MTT, mean ± S.E.M, n = 3, read-out: IC50, 50% antiviral effect concentration) [µg/mL]
CO[C@@]12C[C@]3(C)CCC[C@H](C)[C@@]3(O)CC1=C(C)C(=O)O2 [Compound 1, 5β-Hydroxy-8α-methoxy eudesm-7(11)-en-12,8-olide] | 41.84 ± 0.11 | 62.21 ± 0.67 | 96.77 ± 0.44 (≈ 345 µM) | 93% and 93.4 ± 0.60% | 0.002 (≈ 0.00713 µM) | 39,872.3 | – | – | –
CC1=C2C[C@]3(O)[C@@H](C)CCC[C@@]3(C)C[C@@]2(O)OC1=O [Compound 2, 5β,8α-Dihydroxy eudesm-7(11)-en-12,8-olide] | 4.973 ± 0.25 | 81.59 ± 0.41 | 38.4 ± 0.63 (≈ 144 µM) | 69.5% and 69.51 ± 0.26% | 0.002 (≈ 0.00751 µM) | 25,339.5 | – | – | –
Cc1cn([C@H]2C[C@H](N=[N+]=[N-])[C@@H](CO)O2)c(=O)[nH]c1=O [AZT, zidovudine, reference compound] | – | – | – | 83.5 ± 0.57% | 0.002 (≈ 0.00748 µM) | – | – | – | –
CC1=C2C[C@]3(O)[C@@H](C)CCC[C@@]3(C)C[C@@H]2OC1=O [Compound 3, 5β-Hydroxy-8H-β-eudesm-7(11)-en-12,8-olide] | 64.93 ± 0.26 | 65.00 ± 0.01 | 148.1 ± 0.05 (≈ 592 µM) | 77.5% and 77.46 ± 0.93% | 0.04 (≈ 0.16 µM) | 3384.4 | 0.044 ± 0.01 (≈ 0.176 µM) | – | –
C[C@H](Cn1cnc2c(N)ncnc21)OCP(=O)(O)O [TDF, tenofovir] | 4.92 ± 0.71 | 13.17 ± 0.43 | – | 80.55 ± 0.46% | 0.04 ± 0.01 (≈ 0.139 µM) | – | – | 6.73 ± 0.24 (≈ 23.4 µM) | –
Cc1ccnc2c1NC(=O)c1cccnc1N2C1CC1 [NVP, Nevirapine, reference compound] | 0.57 ± 0.0 | 39.13 ± 0.65 | – | 72.53 ± 0.47% | 0.24 ± 0.09 (≈ 0.901 µM) | 3.5 | – | 0.82 ± 0.0 (≈ 3.08 µM) | –
Nc1nc(NC2CC2)c2ncn([C@H]3C=C[C@@H](CO)C3)c2n1 [ABC, abacavir, reference compound] | 0.18 ± 0.03 | 17.83 ± 0.57 | – | 58.67 ± 0.43% | – | 5.0 | – | 0.26 ± 0.00 (≈ 0.908 µM) | 0.05 ± 0.031 (≈ 0.175 µM)
